Assay results taken from ChEMBL document CHEMBL1201862, “PubChem BioAssay data set” (2004).
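Cells were grown in 96-well plates and exposed to each compound for 48 hours at five concentrations; endpoints were interpolated linearly between bracketing concentrations, or set to the highest concentration if not reached. GI50 marks 50% less growth.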 Active and inactive are the calls of the source. No stated cut-off is given here; in the data, active = GI50 up to about 1.1 µM and inactive = higher.

Assays:
Assay in all cases: inhibition of tumour cell growth, NCI panel, 48 h
SK-OV-3 = test system: SK-OV-3
PC-3 = test system: PC-3
A549 = test system: A549
ACHN = test system: ACHN
UACC-62 = test system: UACC-62
HL-60 = test system: HL-60
HCC 2998 = test system: HCC 2998
MDA-MB-435 = test system: MDA-MB-435
HOP-92 = test system: HOP-92
A498 = test system: A498
MDA-N = test system: MDA-N
SK-MEL-28 = test system: SK-MEL-28
NCI-H23 = test system: NCI-H23
NCI/ADR-RES = test system: NCI/ADR-RES
OVCAR-3 = test system: OVCAR-3
IGROV-1 = test system: IGROV-1
SK-MEL-2 = test system: SK-MEL-2
SNB-19 = test system: SNB-19
NCI-H460 = test system: NCI-H460
MDA-MB-231 = test system: MDA-MB-231
HCT-116 = test system: HCT-116
OVCAR-5 = test system: OVCAR-5
HT-29 = test system: HT-29
MOLT-4 = test system: MOLT-4
HCT-15 = test system: HCT-15
Malme-3M = test system: Malme-3M
Hs-578T = test system: Hs-578T
M14 = test system: M14
SW-620 = test system: SW-620
UO-31 = test system: UO-31
EKVX = test system: EKVX
HOP-62 = test system: HOP-62
U-251 = test system: U-251
SF-268 = test system: SF-268
CAKI-1 = test system: CAKI-1
MCF7 = test system: MCF7
RXF 393 = test system: RXF 393
TK-10 = test system: TK-10
SNB-75 = test system: SNB-75
786-0 = test system: 786-0
SF-295 = test system: SF-295
NCI-H226 = test system: NCI-H226
RPMI-8226 = test system: RPMI-8226
LOX IMVI = test system: LOX IMVI
SK-MEL-5 = test system: SK-MEL-5
K562 = test system: K562
BT-549 = test system: BT-549
UACC-257 = test system: UACC-257
KM12 = test system: KM12
DU-145 = test system: DU-145
OVCAR-8 = test system: OVCAR-8
OVCAR-4 = test system: OVCAR-4
COLO 205 = test system: COLO 205
CCRF-CEM = test system: CCRF-CEM
SF-539 = test system: SF-539
SN12C = test system: SN12C
SR = test system: SR
T47D = test system: T47D

Measured: GI50

C/C(Cc1ccc2c(c1)OCO2)=N\NC(=O)C(C)Sc1nnc(SC(C)C(=O)N/N=C(\C)Cc2ccc3c(c2)OCO3)s1 (configuration not stated)
> 100 µM: HCT-15
inactive: SK-OV-3 > 100 µM | PC-3 > 100 µM | A549 > 100 µM | ACHN > 100 µM | UACC-62 > 100 µM | HL-60 > 100 µM | HCC 2998 > 100 µM | MDA-MB-435 > 100 µM | HOP-92 61.1 µM | A498 62.4 µM | MDA-N > 100 µM | SK-MEL-28 > 100 µM | NCI-H23 > 100 µM | NCI/ADR-RES > 100 µM | OVCAR-3 > 100 µM | IGROV-1 > 100 µM | SK-MEL-2 > 100 µM | SNB-19 > 100 µM | NCI-H460 > 100 µM | MDA-MB-231 84.7 µM | HCT-116 > 100 µM | OVCAR-5 > 100 µM | HT-29 > 100 µM | MOLT-4 27.7 µM | Malme-3M > 100 µM | Hs-578T > 100 µM | M14 > 100 µM | SW-620 > 100 µM | UO-31 > 100 µM | EKVX 81.3 µM | HOP-62 > 100 µM | U-251 > 100 µM | SF-268 > 100 µM | CAKI-1 > 100 µM | MCF7 24.1 µM | RXF 393 > 100 µM | TK-10 > 100 µM | SNB-75 83.9 µM | 786-0 > 100 µM | SF-295 > 100 µM | NCI-H226 > 100 µM | RPMI-8226 37.6 µM | LOX IMVI > 100 µM | SK-MEL-5 69.3 µM | K562 32.1 µM | BT-549 > 100 µM | UACC-257 > 100 µM | KM12 > 100 µM | DU-145 > 100 µM | OVCAR-8 > 100 µM | OVCAR-4 > 100 µM | COLO 205 > 100 µM | CCRF-CEM 66.2 µM

c1ccc(-c2nc3ccccc3n3nnnc23)cc1
> 100 µM: HCT-15
active: UO-31 0.424 µM
inactive: SK-OV-3 > 100 µM | PC-3 > 100 µM | A549 > 100 µM | ACHN > 100 µM | UACC-62 > 100 µM | HL-60 > 100 µM | HCC 2998 > 100 µM | MDA-MB-435 > 100 µM | HOP-92 > 100 µM | A498 > 100 µM | MDA-N > 100 µM | SK-MEL-28 > 100 µM | NCI-H23 > 100 µM | NCI/ADR-RES > 100 µM | OVCAR-3 > 100 µM | IGROV-1 > 100 µM | SK-MEL-2 > 100 µM | SNB-19 75.7 µM | NCI-H460 > 100 µM | MDA-MB-231 > 100 µM | HCT-116 > 100 µM | OVCAR-5 > 100 µM | HT-29 > 100 µM | MOLT-4 > 100 µM | Malme-3M > 100 µM | M14 > 100 µM | SF-539 > 100 µM | SW-620 > 100 µM | SN12C > 100 µM | EKVX 11.5 µM | HOP-62 63.5 µM | U-251 > 100 µM | SF-268 75.7 µM | MCF7 > 100 µM | RXF 393 52.1 µM | TK-10 > 100 µM | 786-0 57.1 µM | NCI-H226 > 100 µM | RPMI-8226 > 100 µM | SR > 100 µM | LOX IMVI > 100 µM | SK-MEL-5 > 100 µM | K562 > 100 µM | BT-549 > 100 µM | UACC-257 > 100 µM | KM12 > 100 µM | DU-145 > 100 µM | T47D 20.2 µM | OVCAR-4 > 100 µM | COLO 205 > 100 µM | CCRF-CEM > 100 µM
